The NIST ThermoML archive (doi:10.1021/je900550v)

Details: 101.33 kPa, Liquid; for mass density: Vibrating tube method; for speed of sound: Pulse-echo method

CCCC(=O)[O-].C[NH2+]CCO [N-methyl-2-hydroxyethylammonium butanoate]
Details	mass density [kg/m3]	speed of sound [m/s]	viscosity [mPa·s]
293.15 K	1042.64	–	–
293.4 K	1042.47	1629.8	–
293.65 K	1042.3	1629	–
293.9 K	1042.13	1628.2	–
294.15 K	1041.96	1627.4	–
294.4 K	1041.79	1626.6	–
294.65 K	1041.63	1625.7	–
294.9 K	1041.45	1624.9	–
295.15 K	1041.29	1624.1	–
295.4 K	1041.12	1623.3	–
295.65 K	1040.95	1622.5	352.2
295.9 K	1040.78	1621.7	–
296.15 K	1040.61	1620.9	–
296.4 K	1040.44	1620.1	–
296.65 K	1040.27	1619.3	–
296.9 K	1040.1	1618.5	–
297.15 K	1039.93	1617.7	–
297.4 K	1039.76	1617	–
297.65 K	1039.59	1616.1	–
297.9 K	1039.42	1615.3	–
298.15 K	1039.24	1614.5	298.95
298.4 K	1039.08	1613.8	–
298.65 K	1038.9	1613	–
298.9 K	1038.73	1612.2	–
299.15 K	1038.56	1611.4	–
299.4 K	1038.39	1610.6	–
299.65 K	1038.22	1609.8	–
299.9 K	1038.05	1609	–
300.15 K	1037.88	1608.2	–
300.4 K	1037.71	1607.4	–
300.65 K	1037.54	1606.6	256.7
300.9 K	1037.37	1605.8	–
301.15 K	1037.2	1605	–
301.4 K	1037.03	1604.2	–
301.65 K	1036.87	1603.4	–
301.9 K	1036.7	1602.6	–
302.15 K	1036.54	1601.8	–
302.4 K	1036.38	1601	–
302.65 K	1036.2	1600.2	–
302.9 K	1036.04	1599.5	–
303.15 K	1035.87	1598.7	219.16
303.4 K	1035.71	1597.9	–
303.65 K	1035.54	1597.1	–
303.9 K	1035.38	1596.3	–
304.15 K	1035.21	1595.5	–
304.4 K	1035.04	1594.8	–
304.65 K	1034.88	1594	–
304.91 K	1034.71	1593.2	–
305.15 K	1034.54	1592.4	–
305.4 K	1034.38	1591.6	–
305.45 K	–	–	186.26
305.65 K	1034.21	1590.8	–
305.9 K	1034.04	1590.1	–
306.15 K	1033.88	1589.3	–
306.4 K	1033.71	1588.5	–
306.65 K	1033.54	1587.7	–
306.9 K	1033.38	1587	–
307.15 K	1033.2	1586.2	–
307.4 K	1033.04	1585.4	–
307.65 K	1032.87	1584.6	–
307.9 K	1032.7	1583.8	–
